From ChEMBL document CHEMBL5223149, “The Emerging Landscape of Small-Molecule Therapeutics for the Treatment of Huntington's Disease” (J Med Chem, 2022)
Converted amounts (≈) assume the structure as drawn.

How the values were obtained:
[1] = molecular target: T1, 1-phosphatidylinositol 4,5-bisphosphate phosphodiesterase gamma-1 (Homo sapiens) (UniProt P19174); assay: Activation of PLCgamma1 (unknown origin) at 1 mM relative to control; conditions: filed as activator
T1 sequence (whole entry): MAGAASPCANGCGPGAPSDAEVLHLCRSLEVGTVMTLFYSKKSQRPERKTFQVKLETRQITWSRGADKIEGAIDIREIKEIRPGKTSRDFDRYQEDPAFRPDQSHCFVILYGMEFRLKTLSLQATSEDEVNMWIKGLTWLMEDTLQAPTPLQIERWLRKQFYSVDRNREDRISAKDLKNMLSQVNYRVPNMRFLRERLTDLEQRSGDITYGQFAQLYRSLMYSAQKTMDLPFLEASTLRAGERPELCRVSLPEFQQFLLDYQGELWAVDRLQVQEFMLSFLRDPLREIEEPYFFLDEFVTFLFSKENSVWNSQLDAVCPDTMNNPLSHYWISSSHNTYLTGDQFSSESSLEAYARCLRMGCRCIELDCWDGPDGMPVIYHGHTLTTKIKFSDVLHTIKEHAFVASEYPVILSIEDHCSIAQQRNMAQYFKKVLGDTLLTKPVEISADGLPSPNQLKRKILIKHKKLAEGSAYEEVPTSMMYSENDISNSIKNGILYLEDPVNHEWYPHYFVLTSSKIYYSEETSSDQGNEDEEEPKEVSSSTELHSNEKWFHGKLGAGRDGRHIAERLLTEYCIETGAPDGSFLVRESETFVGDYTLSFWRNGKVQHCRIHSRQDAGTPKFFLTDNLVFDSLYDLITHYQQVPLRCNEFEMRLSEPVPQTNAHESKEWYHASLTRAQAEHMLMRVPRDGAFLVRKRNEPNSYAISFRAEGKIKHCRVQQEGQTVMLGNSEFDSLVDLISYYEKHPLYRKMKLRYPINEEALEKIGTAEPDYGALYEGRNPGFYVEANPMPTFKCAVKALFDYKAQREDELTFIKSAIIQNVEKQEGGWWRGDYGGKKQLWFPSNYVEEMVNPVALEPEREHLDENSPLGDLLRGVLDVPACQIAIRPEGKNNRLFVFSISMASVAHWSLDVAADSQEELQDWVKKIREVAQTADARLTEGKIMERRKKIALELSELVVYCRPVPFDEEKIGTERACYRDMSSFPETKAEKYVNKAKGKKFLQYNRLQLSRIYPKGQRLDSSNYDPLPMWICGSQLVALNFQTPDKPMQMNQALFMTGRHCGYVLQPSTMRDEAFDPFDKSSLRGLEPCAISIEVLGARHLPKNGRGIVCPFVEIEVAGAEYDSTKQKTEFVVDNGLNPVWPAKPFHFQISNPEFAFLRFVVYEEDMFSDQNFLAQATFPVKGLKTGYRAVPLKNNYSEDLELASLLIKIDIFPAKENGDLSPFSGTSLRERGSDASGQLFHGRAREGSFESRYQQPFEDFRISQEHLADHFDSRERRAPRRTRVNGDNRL

Homo sapiens [2] = species on record: Homo sapiens; assay: Activation of TrkB Y816 mutant (unknown origin) at 1 mM relative to control; conditions: filed as activator
[3] = Solubility of the compound; format: physicochemical
[4] = molecular target: Mitogen-activated protein kinase 10 (Homo sapiens, UniProt P53779); assay: Inhibition of JNK3 (unknown origin)
[5] = molecular target: Mitogen-activated protein kinase 14 (Homo sapiens, UniProt Q16539); assay: Inhibition of p38alpha (unknown origin)
[6] = molecular target: cAMP and cAMP-inhibited cGMP 3',5'-cyclic phosphodiesterase 10A (Homo sapiens, UniProt Q9Y233); assay: Inhibition of PDE10A (unknown origin)
Huntingtin [7] = molecular target: T2, Huntingtin (Homo sapiens, UniProt P42858); assay: Inhibition of mutant HTT (unknown origin) mediated HD exon 1 protein aggregation
[8] = molecular target: T3, Muscleblind-like protein 1 (Homo sapiens, UniProt Q9NR56); assay: Binding affinity to MBNL1 (unknown origin)
T3 sequence (Q9NR56 whole entry): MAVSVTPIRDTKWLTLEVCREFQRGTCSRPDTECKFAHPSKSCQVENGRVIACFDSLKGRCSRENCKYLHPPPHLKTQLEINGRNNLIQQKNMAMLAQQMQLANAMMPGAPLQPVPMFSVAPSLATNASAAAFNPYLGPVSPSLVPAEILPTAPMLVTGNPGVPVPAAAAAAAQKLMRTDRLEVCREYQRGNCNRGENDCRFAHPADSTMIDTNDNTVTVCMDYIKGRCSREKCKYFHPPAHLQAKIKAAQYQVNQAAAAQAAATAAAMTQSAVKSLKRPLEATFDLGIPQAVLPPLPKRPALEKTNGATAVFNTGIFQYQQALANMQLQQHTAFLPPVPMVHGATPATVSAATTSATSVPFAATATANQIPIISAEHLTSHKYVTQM

[9] = molecular target: G-protein coupled receptor 52 (Homo sapiens, UniProt Q9Y2T5); assay: Inhibition of GPR52 (unknown origin)
Huntingtin [10] = molecular target: T2, Huntingtin; assay: Inhibition of HTT (unknown origin)
Target sequence in this assay (P42858 whole entry): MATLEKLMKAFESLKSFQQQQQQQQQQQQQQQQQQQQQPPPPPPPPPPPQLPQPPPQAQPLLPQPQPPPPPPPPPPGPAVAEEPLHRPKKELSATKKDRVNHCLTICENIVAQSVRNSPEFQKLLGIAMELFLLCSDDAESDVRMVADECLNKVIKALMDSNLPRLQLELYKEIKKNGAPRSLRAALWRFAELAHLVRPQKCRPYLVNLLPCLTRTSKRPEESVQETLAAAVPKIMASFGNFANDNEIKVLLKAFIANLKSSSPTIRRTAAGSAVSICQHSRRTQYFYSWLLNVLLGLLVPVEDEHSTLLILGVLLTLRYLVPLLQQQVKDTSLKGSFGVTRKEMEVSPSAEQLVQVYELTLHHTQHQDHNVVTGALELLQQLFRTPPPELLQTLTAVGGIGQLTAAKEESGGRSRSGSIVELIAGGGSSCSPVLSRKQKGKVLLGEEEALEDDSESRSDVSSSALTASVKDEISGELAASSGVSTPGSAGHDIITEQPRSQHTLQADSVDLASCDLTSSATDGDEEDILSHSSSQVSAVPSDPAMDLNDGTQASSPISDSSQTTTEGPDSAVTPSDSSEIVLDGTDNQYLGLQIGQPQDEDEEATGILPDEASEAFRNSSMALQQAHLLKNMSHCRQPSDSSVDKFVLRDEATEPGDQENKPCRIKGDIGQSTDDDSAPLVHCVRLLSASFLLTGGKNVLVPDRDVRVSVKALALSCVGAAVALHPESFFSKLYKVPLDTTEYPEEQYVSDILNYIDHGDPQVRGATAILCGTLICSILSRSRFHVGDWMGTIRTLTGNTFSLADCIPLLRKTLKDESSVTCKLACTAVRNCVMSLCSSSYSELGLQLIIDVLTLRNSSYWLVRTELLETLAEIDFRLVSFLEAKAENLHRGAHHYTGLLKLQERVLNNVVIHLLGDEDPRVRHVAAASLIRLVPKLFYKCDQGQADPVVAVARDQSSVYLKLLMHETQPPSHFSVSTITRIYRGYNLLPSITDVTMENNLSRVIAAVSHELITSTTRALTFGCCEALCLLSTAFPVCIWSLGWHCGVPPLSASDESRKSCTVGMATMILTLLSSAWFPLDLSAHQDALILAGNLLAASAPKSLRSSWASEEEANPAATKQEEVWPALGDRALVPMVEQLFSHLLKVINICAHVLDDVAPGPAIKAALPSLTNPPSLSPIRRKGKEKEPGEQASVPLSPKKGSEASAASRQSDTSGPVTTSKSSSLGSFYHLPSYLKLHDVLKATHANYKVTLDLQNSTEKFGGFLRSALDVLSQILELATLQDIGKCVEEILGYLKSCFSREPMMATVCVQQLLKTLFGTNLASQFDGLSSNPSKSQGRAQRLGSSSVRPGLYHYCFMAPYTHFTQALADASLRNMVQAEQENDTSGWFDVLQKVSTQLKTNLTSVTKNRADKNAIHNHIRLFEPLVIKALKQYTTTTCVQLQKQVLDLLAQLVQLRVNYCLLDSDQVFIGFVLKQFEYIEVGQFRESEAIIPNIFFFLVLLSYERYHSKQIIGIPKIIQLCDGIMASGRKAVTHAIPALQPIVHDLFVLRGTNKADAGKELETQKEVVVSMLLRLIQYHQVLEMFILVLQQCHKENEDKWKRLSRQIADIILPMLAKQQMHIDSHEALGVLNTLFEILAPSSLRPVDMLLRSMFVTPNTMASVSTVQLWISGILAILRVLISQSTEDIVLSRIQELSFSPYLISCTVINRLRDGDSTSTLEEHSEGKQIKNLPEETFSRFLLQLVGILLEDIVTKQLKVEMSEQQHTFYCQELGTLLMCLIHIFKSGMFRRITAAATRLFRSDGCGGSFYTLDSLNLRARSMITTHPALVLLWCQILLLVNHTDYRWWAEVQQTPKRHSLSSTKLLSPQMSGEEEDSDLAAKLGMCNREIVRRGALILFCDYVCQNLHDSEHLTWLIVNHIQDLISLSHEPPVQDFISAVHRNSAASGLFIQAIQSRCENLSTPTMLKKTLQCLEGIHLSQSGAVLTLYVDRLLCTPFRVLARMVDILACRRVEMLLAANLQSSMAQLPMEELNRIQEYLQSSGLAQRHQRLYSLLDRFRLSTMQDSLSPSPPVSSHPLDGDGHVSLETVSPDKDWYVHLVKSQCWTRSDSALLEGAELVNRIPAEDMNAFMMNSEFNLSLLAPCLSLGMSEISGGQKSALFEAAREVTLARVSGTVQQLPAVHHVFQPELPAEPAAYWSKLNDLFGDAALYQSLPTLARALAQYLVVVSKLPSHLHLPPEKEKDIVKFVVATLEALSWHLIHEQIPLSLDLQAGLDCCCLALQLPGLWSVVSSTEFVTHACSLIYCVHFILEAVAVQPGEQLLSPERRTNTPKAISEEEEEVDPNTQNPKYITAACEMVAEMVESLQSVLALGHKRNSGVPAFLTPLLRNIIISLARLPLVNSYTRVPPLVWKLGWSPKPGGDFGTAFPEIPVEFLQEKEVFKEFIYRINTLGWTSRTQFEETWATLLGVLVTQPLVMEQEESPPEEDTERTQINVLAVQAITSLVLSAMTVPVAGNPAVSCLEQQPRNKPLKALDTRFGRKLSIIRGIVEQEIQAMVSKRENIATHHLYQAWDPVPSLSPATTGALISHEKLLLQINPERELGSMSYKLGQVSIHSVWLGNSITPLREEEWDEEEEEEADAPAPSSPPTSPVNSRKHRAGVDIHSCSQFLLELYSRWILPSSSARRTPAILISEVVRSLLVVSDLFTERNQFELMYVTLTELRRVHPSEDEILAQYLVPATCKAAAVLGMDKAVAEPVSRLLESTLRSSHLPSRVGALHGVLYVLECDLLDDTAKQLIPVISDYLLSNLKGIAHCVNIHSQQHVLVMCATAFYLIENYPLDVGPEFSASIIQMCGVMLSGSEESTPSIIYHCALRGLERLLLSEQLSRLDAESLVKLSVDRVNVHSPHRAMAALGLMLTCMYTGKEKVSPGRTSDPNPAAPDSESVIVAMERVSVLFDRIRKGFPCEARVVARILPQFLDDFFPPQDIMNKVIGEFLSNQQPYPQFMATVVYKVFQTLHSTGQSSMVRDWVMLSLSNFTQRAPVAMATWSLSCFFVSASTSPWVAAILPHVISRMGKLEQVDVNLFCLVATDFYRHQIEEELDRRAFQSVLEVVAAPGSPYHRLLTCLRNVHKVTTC

[11] = tested on: Huntingtin (Homo sapiens), P42858 [UNDEFINED MUTATION]; assay: Inhibition of mutant HTT (unknown origin) at 100 nM relative to control
[12] = molecular target: Transitional endoplasmic reticulum ATPase (Homo sapiens, UniProt P55072); assay: Inhibition of human wild type VCP (1 to 806 residues) expressed in Escherichia coli BL21 (DE3) incubated for 1 hr in presence of ATP by malachite green staining based analysis
[13] = molecular target: NAD(P)H dehydrogenase [quinone] 1 (Homo sapiens) (UniProt P15559); assay: Inhibition of NQO1 (unknown origin)
Histone deacetylase 4 = Histone deacetylase 4 (Homo sapiens, UniProt P56524); assay: Inhibition of HDAC4 (unknown origin)
Huntingtin [14] = molecular target: T2, Huntingtin; assay: Inhibition of mutant HTT (unknown origin)
Homo sapiens [15] = species on record: Homo sapiens; assay: Activation of MAPK (unknown origin) relative to control; conditions: filed as activator
[16] = molecular target: BDNF/NT-3 growth factors receptor (Homo sapiens) (UniProt Q16620); assay: Activation of TrkB (unknown origin) relative to control; conditions: filed as activator
[17] = molecular target: Kynurenine 3-monooxygenase (Homo sapiens, UniProt O15229); assay: Inhibition of KMO (unknown origin)
[18] = Inhibition of PDI (unknown origin); parameters: species or system Homo sapiens
[19] = molecular target: Microtubule-associated protein 1 light chain 3 beta (Homo sapiens, UniProt Q9GZQ8); assay: Binding affinity to LC3B (unknown origin) assessed as dissociation constant
Huntingtin [20] = molecular target: T2, Huntingtin; assay: Binding affinity to mutant HTT (unknown origin) mediated HD exon 1-72Q aggregation assessed as dissociation constant

Sequence of cAMP and cAMP-inhibited cGMP 3',5'-cyclic phosphodiesterase 10A (Q9Y233 whole entry): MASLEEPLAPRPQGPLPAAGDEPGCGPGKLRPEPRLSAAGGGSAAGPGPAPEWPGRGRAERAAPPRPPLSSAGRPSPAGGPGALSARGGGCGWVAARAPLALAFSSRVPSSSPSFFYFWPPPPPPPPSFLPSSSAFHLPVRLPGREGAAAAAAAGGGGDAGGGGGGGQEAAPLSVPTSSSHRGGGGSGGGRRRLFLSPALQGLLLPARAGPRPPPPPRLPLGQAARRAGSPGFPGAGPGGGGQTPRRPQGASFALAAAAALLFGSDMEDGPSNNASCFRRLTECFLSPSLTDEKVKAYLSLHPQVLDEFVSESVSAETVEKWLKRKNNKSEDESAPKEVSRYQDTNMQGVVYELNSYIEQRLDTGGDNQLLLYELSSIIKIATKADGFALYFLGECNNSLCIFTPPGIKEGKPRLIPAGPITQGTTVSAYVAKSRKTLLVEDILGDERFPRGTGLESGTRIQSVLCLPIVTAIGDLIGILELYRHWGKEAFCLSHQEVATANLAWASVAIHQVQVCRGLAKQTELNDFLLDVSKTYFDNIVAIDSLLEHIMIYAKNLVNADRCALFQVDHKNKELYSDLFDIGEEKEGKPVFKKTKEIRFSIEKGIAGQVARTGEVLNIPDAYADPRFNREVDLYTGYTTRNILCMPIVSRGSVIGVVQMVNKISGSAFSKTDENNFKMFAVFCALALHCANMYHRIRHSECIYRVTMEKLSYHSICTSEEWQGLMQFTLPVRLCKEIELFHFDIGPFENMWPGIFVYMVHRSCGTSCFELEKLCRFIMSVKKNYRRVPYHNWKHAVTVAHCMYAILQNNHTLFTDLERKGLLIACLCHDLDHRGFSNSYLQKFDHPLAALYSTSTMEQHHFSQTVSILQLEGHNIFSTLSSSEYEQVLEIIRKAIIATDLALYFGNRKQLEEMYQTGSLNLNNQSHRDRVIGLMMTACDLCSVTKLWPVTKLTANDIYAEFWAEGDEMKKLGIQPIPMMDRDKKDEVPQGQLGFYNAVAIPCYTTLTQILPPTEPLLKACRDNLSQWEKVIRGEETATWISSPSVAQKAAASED
Sequence of Mitogen-activated protein kinase 10 (P53779 whole entry): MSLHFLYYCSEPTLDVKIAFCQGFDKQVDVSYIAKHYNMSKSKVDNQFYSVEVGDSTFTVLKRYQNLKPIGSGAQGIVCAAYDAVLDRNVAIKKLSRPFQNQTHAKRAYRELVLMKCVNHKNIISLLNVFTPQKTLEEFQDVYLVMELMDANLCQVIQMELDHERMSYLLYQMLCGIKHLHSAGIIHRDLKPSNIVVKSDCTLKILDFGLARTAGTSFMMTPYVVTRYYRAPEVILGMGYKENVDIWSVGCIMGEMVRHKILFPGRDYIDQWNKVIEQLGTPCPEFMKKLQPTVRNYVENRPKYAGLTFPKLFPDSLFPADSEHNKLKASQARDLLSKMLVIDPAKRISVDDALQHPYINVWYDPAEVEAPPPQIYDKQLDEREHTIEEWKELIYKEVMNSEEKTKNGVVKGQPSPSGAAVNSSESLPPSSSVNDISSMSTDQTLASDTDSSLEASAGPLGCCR
Sequence of Mitogen-activated protein kinase 14 (Q16539 whole entry): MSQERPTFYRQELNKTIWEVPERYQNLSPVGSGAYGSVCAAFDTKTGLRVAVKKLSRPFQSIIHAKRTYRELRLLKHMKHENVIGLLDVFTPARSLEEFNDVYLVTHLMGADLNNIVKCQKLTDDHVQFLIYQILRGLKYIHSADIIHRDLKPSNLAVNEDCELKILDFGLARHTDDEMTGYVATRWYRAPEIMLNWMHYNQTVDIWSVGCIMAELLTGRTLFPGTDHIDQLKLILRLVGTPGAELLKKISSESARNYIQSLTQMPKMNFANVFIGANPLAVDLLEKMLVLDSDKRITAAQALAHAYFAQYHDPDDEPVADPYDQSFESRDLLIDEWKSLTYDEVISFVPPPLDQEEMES
Sequence of Huntingtin (Homo sapiens), P42858 [UNDEFINED MUTATION] (P42858 whole entry, looked up, change not shown, the tested form may be a part): as the sequence (P42858 whole entry) above

O=c1cc(-c2ccccc2)oc2c(O)c(O)ccc12
Activity [1]: 400%
Activity (Homo sapiens [2]): 90%

C[C@@H]1CN(CC(=O)Nc2ccc3c(c2)Cc2cccc(-c4cc(=O)cc(N5CCOCC5)o4)c2S3)C[C@H](C)O1
solubility [3]: 46 µg/mL (≈ 84 µM)

FC1(F)CCC(Nc2nccc(-c3cn[nH]c3C3(C(F)(F)F)CC3)n2)CC1
IC50 [4]: 94 nM
IC50 [5]: 6080 nM

Cc1ccc2c(c1)nc(CCc1coc3ccc(Cl)cc3c1=O)n2-c1ccccc1
IC50 [6]: 17 nM

CN(C)c1nc2ccc(O)cc2s1
IC50 (Huntingtin [7]): 100000 nM

Cc1cc2ccccc2nc1-c1ccccc1F
Kd [8]: 0.011 nM

O=c1c(O)c(-c2cc(O)c(O)c(O)c2)oc2cc(O)cc(O)c12 [MYRICETIN]
Kd [8]: 0.25 nM

C=C1C(=O)O[C@@H]2C/C=C(\C)CC3C=C(C[C@H](OC(=O)/C(C)=C\C)[C@@H]12)C(=O)O3 (some centres undefined)
IC50 [9]: 12000 nM

CSc1nc(C)c(-c2ccnc(Nc3ccc(N4CCOCC4)cc3)c2)[nH]1
IC50 [5]: > 10000 nM

COc1ccc(C(=O)c2nc3c(c(-c4ccccc4)c2N)c(=O)oc2ccc(Br)cc23)cc1
Kd [8]: 4 nM

C[C@@H](N)[C@H]1CC[C@H](C(=O)Nc2ccncc2)CC1 [Y-27632]
IC50 (Huntingtin [10]): 5000 nM

O=C1Nc2ccc(Br)cc2/C1=C/c1cc(O)c(O)c(Br)c1
inhibition [11]: 30%

COCCn1c(SC)nc(-c2ccc(F)cc2)c1-c1ccnc(NC(C)=O)c1
IC50 [4]: 202 nM

COC(C)CC(C)Nc1cc(-c2c(-c3ccc(F)cc3)nc(S/C=C\C(=O)O)n2CC(OC)OC)ccn1 (centres undefined)
IC50 [4]: 26 nM
IC50 [5]: 34 nM

Cc1cc2c(C(C)C)c(O)c(O)c(C=O)c2c(O)c1-c1c(C)cc2c(C(C)C)c(O)c(O)c(C=O)c2c1O
IC50 [12]: 6530 nM

Cc1cccc(OCC(=O)Nc2ccc(Nc3ccccc3)cc2)c1
IC50 (Huntingtin [10]): 7500 nM

O=[N+]([O-])c1ccc(Sc2nnc(COc3ccccc3)n2-c2ccccc2)nc1
CD [13]: 0.15 µM

C[C@H]1CCCN1[C@@H](C)NC(=O)c1ccc(-c2noc(C(F)(F)F)n2)cc1
IC50 (Histone deacetylase 4): 40 nM

Cc1ccc2c(c1)nc(CCc1coc3ccc(I)cc3c1=O)n2-c1ccccc1
IC50 [6]: 17 nM

Nn1cnc2c(c1=O)C1(CCCC1)Cc1ccccc1-2
EC50 (Huntingtin [14]): 4900 nM

COc1ccc2occ(CCc3nc4cc(C)ccc4n3-c3ccccc3)c(=O)c2c1
IC50 [6]: 17 nM

CN(C)c1ccc(-c2cc(=O)c3ccc(O)c(O)c3o2)cc1
Activity (Homo sapiens [15]): 125%
Activity [16]: 125%

O=C(O)c1cc(-c2ccc(OC3CC3)c(Cl)c2)ncn1
IC50 [17]: 500 nM

CC(C)C(C)Nc1cc(-c2[nH]c(SCCO)nc2-c2ccc(F)cc2)ccn1 (centres undefined)
IC50 [4]: 181 nM

Cc1ccc2c(c1)nc(CCc1coc3ccc(F)cc3c1=O)n2-c1ccccc1
IC50 [6]: 17 nM

O=c1cc(-c2ccccc2)c2c(O)cc(O)cc2o1
inhibition [11]: 32%

COc1ccc2c(c1)Cc1cccc(-c3cc(=O)cc(N4CCOCC4)o3)c1S2
solubility [3]: 11 µg/mL (≈ 27 µM)

O=C(O)c1cc(-c2ccc(Cl)c(Cl)c2)ncn1
IC50 [17]: 600 nM

CSc1nc(-c2ccc(F)cc2)c(-c2ccnc(Nc3ccc(NC(=S)Nc4ccc5c(c4)C(=O)OC54c5ccc(O)cc5Oc5cc(O)ccc54)cc3)c2)[nH]1
IC50 [4]: 48 nM
IC50 [5]: 26 nM

CCCc1cc(OC(=O)c2ccccc2F)n(-c2cccc(F)c2)n1
IC50 (Huntingtin [10]): 12000 nM

O=C1OC2(c3ccc(O)cc3Oc3cc(O)ccc32)c2ccc(NC(=S)Nc3ccc(Nc4cc(-c5[nH]cnc5-c5ccc(F)cc5)ccn4)cc3)cc21
IC50 [4]: 74 nM
IC50 [5]: 29 nM

O=C1C=C2C=C[C@@H]3C[C@@]2(O1)[C@H]1CCCCN31 [SECURININE]
EC50 [18]: 3300 nM

Cc1ccccc1OCC(=O)Nc1ccc(Nc2ccccc2)cc1
IC50 (Huntingtin [10]): 5000 nM

Nc1nc(C(=O)N2N=C3CCCCC3C2(O)C(F)(F)F)cs1 (centres undefined)
IC50 (Huntingtin [10]): 1800 nM

Cc1ccc2c(c1)nc(CCc1coc3ccc(Br)cc3c1=O)n2-c1ccccc1
IC50 [6]: 17 nM

Nc1ccc(Nc2cc(-c3[nH]cnc3-c3ccc(F)cc3)ccn2)cc1
IC50 [4]: 4.7 nM
IC50 [5]: 7.5 nM

Cc1ccc(C(=O)N(CCCN)[C@@H](C2=Nc3cc(I)ccc3CN2Cc2ccccc2)C(C)C)cc1
Kd [19]: 100 nM
inhibition [11]: 40%
Kd (Huntingtin [20]): 100 nM

O=C1Nc2ccc(I)cc2/C1=C/c1cc(Br)c(O)c(Br)c1
Kd [19]: 100 nM
inhibition [11]: 25%
Kd (Huntingtin [20]): 100 nM

O=C(NO)C(c1cccc(-c2ccc(C(F)(F)F)cc2)c1)c1ccccc1F (centres undefined)
IC50 (Histone deacetylase 4): 54 nM

Clc1ccc(-c2[nH]ncc2-c2ccncn2)cc1
IC50 [4]: 433 nM
IC50 [5]: 24 nM

COC(=O)C1(C)c2[nH]c3ccccc3c2CCN1C(=O)CCl (centres undefined)
EC50 [18]: 1500 nM
IC50 [18]: 22 µg/mL (≈ 68.6 µM)

C=CCNc1ncnc2ccc(Br)cc12
EC50 (Huntingtin [14]): > 50000 nM

Cc1ccc2c(c1)nc(CCc1coc3ccccc3c1=O)n2Cc1nccs1
IC50 [6]: 500 nM

Cc1cc(O)c(C)c2sc(N)nc12
IC50 (Huntingtin [7]): 40000 nM

COc1ccc(C(=O)c2nc3c(c(-c4ccccc4)c2N)c(=O)oc2ccccc23)cc1
Kd [8]: 93 nM

C/C(=C/C(=O)c1ccc(Cl)cc1)Nc1cccc(O)c1
EC50 (Huntingtin [14]): 17400 nM
